Measurements: patent US20250179061A1 (SIRONAX LTD., priority 2022, published 2025)

System: HT-29 cells
Assay: HT-29 necroptosis cell viability assay (TNF-α/SMAC mimetic/zVAD-FMK, CellTiter-Glo)
Assay type: cell-based
Conditions: Homo sapiens, HT-29, HT-29 necroptosis cell viability assay; class symbols for IC50; read-out: Activity
How it was run: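 HT-29 cells (~5,000/well, overnight) in FBS-free McCoy's 5A with TNF-α 10 ng/ml, SMAC mimetic 6 μM and zVAD-FMK 10 μM plus 10-point 1:3 compound titration, 20 h at 37°C. ATP measured by CellTiter-Glo luminescence; IC50 as geometric mean of duplicates.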

Row | SMILES | IC50 [nM]
1 | CC(C)(C)OC(=O)N1CCC2(CC1)CN(c1cc(Oc3ccc(-n4ncn(Cc5c(F)cccc5F)c4=O)cc3)ccn1)C2 [Example 480, tert-butyl2-(4-(4-(4-(2,6-difluorobenzyl)-5-oxo-4,5-dihydro-1H-1,2,4-triazol-1-yl)phenoxy)pyridin-2-yl)-2,7-diazaspiro[3.5]nonane-7-carboxylate] | < 100
2 | O=c1n(Cc2c(F)cccc2F)cnn1-c1ccc(Oc2ccnc(N3C[C@H]4COC[C@H]4C3)c2)cc1 [Example 481, 4-(2,6-difluorobenzyl)-2-(4-((2-((3aR,6aS)-tetrahydro-1H-furo[3,4-c]pyrrol-5(3H)-yl)pyridin-4-yl)oxy)phenyl)-2,4-dihydro-3H-1,2,4-triazol-3-one] | 100 to 1000
3 | O=C1CC2(CCOCC2)CN1c1cc(Oc2ccc(-n3ncn(Cc4c(F)cccc4F)c3=O)cc2)ccn1 [Example 482, 2-(4-(4-(4-(2,6-difluorobenzyl)-5-oxo-4,5-dihydro-1H-1,2,4-triazol-1-yl)phenoxy)pyridin-2-yl)-8-oxa-2-azaspiro[4.5]decan-3-one] | 100 to 1000
4 | O=c1n(Cc2c(F)cccc2F)cnn1-c1ccc(Oc2ccnc(N3CC(OCC4CC4)C3)c2)cc1 [Example 483, 2-(4-((2-(3-(cyclopropylmethoxy)azetidin-1-yl)pyridin-4-yl)oxy)phenyl)-4-(2,6-difluorobenzyl)-2,4-dihydro-3H-1,2,4-triazol-3-one] | 100 to 1000
5 | O=c1n(Cc2c(F)cccc2F)cnn1-c1ccc(Oc2ccnc(NCC3CCCO3)c2)cc1 (centres unmarked) [Example 484, 4-(2,6-difluorobenzyl)-2-(4-((2-(((tetrahydrofuran-2-yl)methyl)amino)pyridin-4-yl)oxy)phenyl)-2,4-dihydro-3H-1,2,4-triazol-3-one] | 100 to 1000
6 | CN(c1cc(Oc2ccc(-n3ncn(Cc4c(F)cccc4F)c3=O)cc2)ccn1)C1CC1 [Example 485, 2-(4-((2-(cyclopropyl(methyl)amino)pyridin-4-yl)oxy)phenyl)-4-(2,6-difluorobenzyl)-2,4-dihydro-3H-1,2,4-triazol-3-one] | 100 to 1000
7 | CCOC1CN(c2cc(Oc3ccc(-n4ncn(Cc5c(Cl)cccc5Cl)c4=O)cc3)ccn2)C1 [Example 486, 4-(2,6-dichlorobenzyl)-2-(4-((2-(3-ethoxyazetidin-1-yl)pyridin-4-yl)oxy)phenyl)-2,4-dihydro-3H-1,2,4-triazol-3-one] | 100 to 1000
8 | CN(CC1CCCO1)c1nccc(Oc2ccc(-n3ncn(Cc4c(F)cccc4F)c3=O)cc2)c1F (centres unmarked) [Example 487, 4-(2,6-difluorobenzyl)-2-(4-((3-fluoro-2-(methyl((tetrahydrofuran-2-yl)methyl)amino)pyridin-4-yl)oxy)phenyl)-2,4-dihydro-3H-1,2,4-triazol-3-one] | 100 to 1000
9 | CCOC1(C)CN(c2nccc(Oc3ccc(-n4ncn(Cc5c(F)cccc5Cl)c4=O)cc3)c2F)C1 [Example 488, 4-(2-chloro-6-fluorobenzyl)-2-(4-((2-(3-ethoxy-3-methylazetidin-1-yl)-3-fluoropyridin-4-yl)oxy)phenyl)-2,4-dihydro-3H-1,2,4-triazol-3-one] | < 100
10 | CCOC1(C)CN(c2cc(Oc3ccc(-n4ncn(Cc5c(F)cccc5Cl)c4=O)cc3)ccn2)C1 [Example 489, 4-(2-chloro-6-fluorobenzyl)-2-(4-((2-(3-ethoxy-3-methylazetidin-1-yl)pyridin-4-yl)oxy)phenyl)-2,4-dihydro-3H-1,2,4-triazol-3-one] | 100 to 1000
11 | CCOC1(C)CN(c2nccc(Oc3ccc(-n4ncn(Cc5c(F)cccc5F)c4=O)cc3)c2F)C1 [Example 490, 4-(2,6-difluorobenzyl)-2-(4-((2-(3-ethoxy-3-methylazetidin-1-yl)-3-fluoropyridin-4-yl)oxy)phenyl)-2,4-dihydro-3H-1,2,4-triazol-3-one] | < 100
12 | COC1(C)CN(c2nccc(Oc3ccc(-n4ncn(Cc5c(F)cccc5Cl)c4=O)cc3)c2F)C1 [Example 491, 4-(2-chloro-6-fluorobenzyl)-2-(4-((3-fluoro-2-(3-methoxy-3-methylazetidin-1-yl)pyridin-4-yl)oxy)phenyl)-2,4-dihydro-3H-1,2,4-triazol-3-one] | < 100
13 | CCOC1CN(c2cc(S(=O)(=O)c3ccc(-n4ncn(Cc5c(F)cccc5F)c4=O)cc3)ccn2)C1 [Example 492, 4-(2,6-difluorobenzyl)-2-(4-((2-(3-ethoxyazetidin-1-yl)pyridin-4-yl)sulfonyl)phenyl)-2,4-dihydro-3H-1,2,4-triazol-3-one] | < 100
14 | CC1(O)CN(c2cc(S(=O)(=O)c3ccc(-n4ncn(Cc5c(F)cccc5F)c4=O)cc3)ccn2)C1 [Example 493, 4-(2,6-difluorobenzyl)-2-(4-((2-(3-hydroxy-3-methylazetidin-1-yl)pyridin-4-yl)sulfonyl)phenyl)-2,4-dihydro-3H-1,2,4-triazol-3-one] | < 100
15 | CCOC1CN(c2nccc(Oc3ccc(-n4ncn(Cc5c(F)cccc5F)c4=O)cc3Cl)c2F)C1 [Example 494, 2-(3-chloro-4-((2-(3-ethoxyazetidin-1-yl)-3-fluoropyridin-4-yl)oxy)phenyl)-4-(2,6-difluorobenzyl)-2,4-dihydro-3H-1,2,4-triazol-3-one] | < 100
16 | CCOC1CN(c2cc(Oc3ccc(-n4ncn(Cc5c(F)cccc5F)c4=O)cc3Cl)c(F)cn2)C1 [Example 495, 2-(3-chloro-4-((2-(3-ethoxyazetidin-1-yl)-5-fluoropyridin-4-yl)oxy)phenyl)-4-(2,6-difluorobenzyl)-2,4-dihydro-3H-1,2,4-triazol-3-one] | < 100
17 | COC1(C)CN(c2cc(Oc3ccc(-n4ncn(Cc5c(F)cccc5F)c4=O)cc3Cl)c(F)cn2)C1 [Example 496, 2-(3-chloro-4-((5-fluoro-2-(3-methoxy-3-methylazetidin-1-yl)pyridin-4-yl)oxy)phenyl)-4-(2,6-difluorobenzyl)-2,4-dihydro-3H-1,2,4-triazol-3-one] | < 100
18 | COC1(C)CN(c2nccc(Oc3ccc(-n4ncn(Cc5c(F)cccc5F)c4=O)cc3Cl)c2F)C1 [Example 497, 2-(3-chloro-4-((3-fluoro-2-(3-methoxy-3-methylazetidin-1-yl)pyridin-4-yl)oxy)phenyl)-4-(2,6-difluorobenzyl)-2,4-dihydro-3H-1,2,4-triazol-3-one] | < 100
19 | O=c1n(Cc2c(F)cccc2F)cnn1-c1ccc(Oc2ccnc(N3CCC34CCC4)c2)cc1 [Example 498, 2-(4-((2-(1-azaspiro[3.3]heptan-1-yl)pyridin-4-yl)oxy)phenyl)-4-(2,6-difluorobenzyl)-2,4-dihydro-3H-1,2,4-triazol-3-one] | 100 to 1000
20 | CC(C)(C)OC(=O)N1CC2(CCN2c2cc(Oc3ccc(-n4ncn(Cc5c(F)cccc5F)c4=O)cc3)ccn2)C1 [Example 499, tert-butyl 1-(4-(4-(4-(2,6-difluorobenzyl)-5-oxo-4,5-dihydro-1H-1,2,4-triazol-1-yl)phenoxy)pyridin-2-yl)-1,6-diazaspiro[3.3]heptane-6-carboxylate] | 100 to 1000
21 | COC1(C)CN(c2cc(Oc3ccc(-n4ncn(Cc5c(F)cccc5F)c4=O)cc3)ccn2)C1 [Example 500, 4-(2,6-difluorobenzyl)-2-(4-((2-(3-methoxy-3-methylazetidin-1-yl)pyridin-4-yl)oxy)phenyl)-2,4-dihydro-3H-1,2,4-triazol-3-one] | < 100
22 | CCOC1(C)CN(c2cc(Oc3ccc(-n4ncn(Cc5c(F)cccc5F)c4=O)cc3Cl)c(F)cn2)C1 [Example 501, 2-(3-chloro-4-((2-(3-ethoxy-3-methylazetidin-1-yl)-5-fluoropyridin-4-yl)oxy)phenyl)-4-(2,6-difluorobenzyl)-2,4-dihydro-3H-1,2,4-triazol-3-one] | < 100
23 | CCOC1(C)CN(c2nccc(Oc3ccc(-n4ncn(Cc5c(F)cccc5F)c4=O)cc3Cl)c2F)C1 [Example 502, 2-(3-chloro-4-((2-(3-ethoxy-3-methylazetidin-1-yl)-3-fluoropyridin-4-yl)oxy)phenyl)-4-(2,6-difluorobenzyl)-2,4-dihydro-3H-1,2,4-triazol-3-one] | < 100
24 | CCOC1(C)CN(c2nccc(Oc3ccc(-n4ncn(Cc5c(F)cccc5F)c4=O)cc3Cl)c2Cl)C1 [Example 503, 2-(3-chloro-4-((3-chloro-2-(3-ethoxy-3-methylazetidin-1-yl)pyridin-4-yl)oxy)phenyl)-4-(2,6-difluorobenzyl)-2,4-dihydro-3H-1,2,4-triazol-3-one] | < 100
25 | CCOC1(C)CN(c2cc(Oc3ccc(-n4ncn(Cc5c(F)cccc5F)c4=O)cc3Cl)c(Cl)cn2)C1 [Example 504, 2-(3-chloro-4-((5-chloro-2-(3-ethoxy-3-methylazetidin-1-yl)pyridin-4-yl)oxy)phenyl)-4-(2,6-difluorobenzyl)-2,4-dihydro-3H-1,2,4-triazol-3-one] | < 100
26 | CC1(OC(F)(F)F)CN(c2cc(Oc3ccc(-n4ncn(Cc5c(F)cccc5F)c4=O)cc3F)c(F)cn2)C1 [Example 505, 4-(2,6-difluorobenzyl)-2-(3-fluoro-4-((5-fluoro-2-(3-methyl-3-(trifluoromethoxy)azetidin-1-yl)pyridin-4-yl)oxy)phenyl)-2,4-dihydro-3H-1,2,4-triazol-3-one] | < 100

Same assay, conditions: Homo sapiens, HT-29, HT-29 necroptosis cell viability, IC50 class symbols; read-out: Activity

Row | SMILES | IC50 [nM]
27 | CCOC(=O)c1noc(Oc2ccc(-n3ncn(Cc4c(F)cccc4F)c3=O)cc2F)c1C [Example 477, ethyl 5-(4-(4-(2,6-difluorobenzyl)-5-oxo-4,5-dihydro-1H-1,2,4-triazol-1-yl)-2-fluorophenoxy)-4-methylisoxazole-3-carboxylate] | 100 to 1000
28 | CN(c1cc(Oc2ccc(-n3ncn(Cc4c(F)cccc4F)c3=O)cc2)ccn1)C1CC(F)(F)C1 [Example 478, 4-(2,6-difluorobenzyl)-2-(4-((2-((3,3-difluorocyclobutyl)(methyl)amino)pyridin-4-yl)oxy)phenyl)-2,4-dihydro-3H-1,2,4-triazol-3-one] | 100 to 1000
29 | Cn1ncn(Cc2ccc(-n3ncn(Cc4c(F)cccc4F)c3=O)cc2)c1=O [Example 479, 4-(2,6-difluorobenzyl)-2-(4-((1-methyl-5-oxo-1,5-dihydro-4H-1,2,4-triazol-4-yl)methyl)phenyl)-2,4-dihydro-3H-1,2,4-triazol-3-one] | 1000 to 10000
